Data from publication PMC10687080, “Resurrecting ancestral antibiotics: unveiling the origins of modern lipid II targeting glycopeptides” (Nature Communications, 2023).

Legend:
ANC2 (ANC2int) = molecular target: T1, ANC2 (ANC2int) (synthetic construct, UniProt Z9RCC4OUL6); assay: NADH coupled pyrophosphate release assay; type: biochemical; conditions: 1 mM substrate, 0.5 mM ATP, 10 mM MgCl2, pH 7.4, 30 °C
T1 construct: resurrected ancestral A-domain, N-terminal His6-SUMO, C-terminal STREP tag, co-expressed with Tcp13 in E. coli BL21(DE3); with MbtH-like protein Tcp13 (Actinoplanes teichomyceticus)

ANC1 = molecular target: T2, ANC1 (synthetic construct, UniProt Z9HSK4K2R8); assay: NADH coupled pyrophosphate release assay; type: biochemical; conditions: 1 mM substrate, 0.5 mM ATP, 10 mM MgCl2, pH 7.4, 30 °C
T2 construct: resurrected ancestral A-domain, N-terminal His6-SUMO, C-terminal STREP tag, co-expressed with Tcp13 in E. coli BL21(DE3); with MbtH-like protein Tcp13 (Actinoplanes teichomyceticus)

## CC(C)C[C@H](N)C(=O)O [L-Leu]
ANC2 (ANC2int)
  NADH coupled pyrophosphate release assay: ANC2 and ANC3 were both selective for Leu

## CC(C)C[C@@H](N)C(=O)O [D-Leu]
ANC2 (ANC2int)
  NADH coupled pyrophosphate release assay: ANC2 and ANC3 were both selective for Leu

## N[C@@H](C(=O)O)c1ccc(O)cc1 [D-Hpg]
ANC1
  NADH coupled pyrophosphate release assay: with a fourfold preference for the L-form
